In patent US8143393B2, “Substituted 4-amino-pyrrolotriazine derivatives useful for treating hyper-proliferative disorders and diseases associated with angiogenesis” (Bayer HealthCare LLC, priority 2005, dated 2012):

Target: T1, FGFR-1 (Homo sapiens, UniProt P11362)
T1 construct: GST; made in house
Assay: FGFR-1 TR-FRET biochemical assay
Conditions: 0.6 uM ATP, 5 nM FGFR1-GST; bounds given in nM
Procedure, shortened: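 In this LANCE time-resolved FRET format, compounds at final 10 μM–0.128 nM (1% DMSO, 1:5 series) were preincubated before enzyme start. Reactions ran for one hour at room temperature with 0.6 uM ATP, 25 nM biotinylated poly GT and 5 nM GST-tagged FGFR1. Inhibition was calculated from the 665/615 nm ratio minus the ATP-free background.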

T1 sequence (P11362 22-822): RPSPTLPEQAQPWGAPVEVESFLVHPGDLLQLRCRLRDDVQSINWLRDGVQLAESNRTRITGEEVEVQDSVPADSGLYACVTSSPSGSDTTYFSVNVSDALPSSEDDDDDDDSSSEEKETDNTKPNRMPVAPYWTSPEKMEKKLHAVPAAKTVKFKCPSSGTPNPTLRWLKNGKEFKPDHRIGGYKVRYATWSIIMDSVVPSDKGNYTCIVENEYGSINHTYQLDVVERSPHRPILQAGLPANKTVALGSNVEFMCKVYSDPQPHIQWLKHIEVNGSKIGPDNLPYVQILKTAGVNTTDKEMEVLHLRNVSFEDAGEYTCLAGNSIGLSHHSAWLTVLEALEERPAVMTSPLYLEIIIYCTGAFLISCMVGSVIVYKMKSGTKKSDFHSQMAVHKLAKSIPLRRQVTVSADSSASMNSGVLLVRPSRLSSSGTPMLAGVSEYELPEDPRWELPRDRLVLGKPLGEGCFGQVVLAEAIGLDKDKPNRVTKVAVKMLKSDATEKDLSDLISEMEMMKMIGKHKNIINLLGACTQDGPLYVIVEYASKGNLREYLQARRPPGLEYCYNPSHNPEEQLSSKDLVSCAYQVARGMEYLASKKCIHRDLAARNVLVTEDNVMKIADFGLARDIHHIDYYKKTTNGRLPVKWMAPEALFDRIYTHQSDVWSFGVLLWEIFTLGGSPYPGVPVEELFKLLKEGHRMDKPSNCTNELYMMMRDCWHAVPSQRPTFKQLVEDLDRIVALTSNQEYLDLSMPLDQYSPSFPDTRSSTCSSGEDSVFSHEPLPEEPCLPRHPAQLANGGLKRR

Compound | IC50
Nc1ncnn2c(CN3CCOCC3)cc(-c3ccc(NC(=O)Nc4cc(C(F)(F)F)ccc4F)nc3)c12 [Example 9, N-{5-[4-amino-7-(morpholin-4-ylmethyl)pyrrolo[2,1-f][1,2,4]triazin-5-yl]pyridin-2-yl}-N′-[2-fluoro-5-(trifluoromethyl)phenyl]urea] | < 10 nM
Nc1ncnn2c(CCN3CCOCC3)cc(-c3ccc(NC(=O)Nc4cc(C(F)(F)F)ccn4)c(F)c3)c12 [Example 250, 1-{4-[4-amino-7-(2-morpholin-4-ylethyl)pyrrolo[2,1-f][1,2,4]triazin-5-yl]-2-fluorophenyl}-3-[4-(trifluoromethyl)pyridin-2-yl]urea] | 10 to 100 nM
Cc1ccc(F)c(NC(=O)Nc2cc(F)c(-c3cc(CN4CCOCC4)n4ncnc(N)c34)cc2F)c1 [Example 145, N-{4-[4-amino-7-(morpholin-4-ylmethyl)pyrrolo[2,1-f][1,2,4]triazin-5-yl]-2,5-difluorophenyl}-N′-(2-fluoro-5-methylphenyl)urea] | 10 to 100 nM
CN(C)C(=O)N1CCC(c2cc(-c3ccc(NC(=O)Nc4cc(C(F)(F)F)ccc4F)c(F)c3)c3c(N)ncnn23)C1 (centres unmarked) [Example 203, 3-{4-amino-5-[3-fluoro-4-({[2-fluoro-5-(trifluoromethyl)phenyl]carbamoyl}amino)phenyl]pyrrolo[2,1-f][1,2,4]triazin-7-yl}-N,N-dimethylpyrrolidine-1-carboxamide] | < 10 nM
Cc1cc(-c2cc(CN3CCCOCC3)n3ncnc(N)c23)ccc1NC(=O)Nc1cc(C(F)(F)F)ccc1F [Example 181, N-{4-[4-amino-7-(1,4-oxazepan-4-ylmethyl)pyrrolo[2,1-f][1,2,4]triazin-5-yl]-2-methylphenyl}-N′-[2-fluoro-5-(trifluoromethyl)phenyl]urea] | < 10 nM
CN1CCN(CCc2cc(-c3ccc(NC(=O)Nc4cc(C(F)(F)F)ccc4F)c(F)c3)c3c(N)ncnn23)CC1 [Example 214, N-(4-{4-amino-7-[2-(4-methylpiperazin-1-yl)ethyl]pyrrolo[2,1-f][1,2,4]triazin-5-yl}-2-fluorophenyl)-N′-[2-fluoro-5-(trifluoromethyl)phenyl]urea] | < 10 nM
Nc1ncnn2c(C3CCN(CC(O)CO)CC3)cc(-c3ccc(NC(=O)Nc4cc(C(F)(F)F)ccc4F)c(F)c3)c12 (centres unmarked) [Example 121, N-(4-4-amino-7-[1-(2,3-dihydroxypropyl)piperidin-4-yl]pyrrolo[2,1-f][1,2,4]triazin-5-yl-2-fluorophenyl)-N′-[2-fluoro-5-(trifluoromethyl)-phenyl]urea] | < 10 nM
Nc1ncnn2c(CN3CCCOCC3)cc(-c3ccc(NC(=O)Nc4cc(C(F)(F)F)ccc4F)cc3)c12 [Example 167, N-{4-[4-amino-7-(1,4-oxazepan-4-ylmethyl)pyrrolo[2,1-f][1,2,4]triazin-5-yl]phenyl}-N′-[2-fluoro-5-(trifluoromethyl)phenyl]urea] | < 10 nM
CNC(=O)N1CCC(c2cc(-c3ccc(NC(=O)Nc4cc(C(F)(F)F)ccc4F)c(F)c3)c3c(N)ncnn23)CC1 [Example 209, 4-{4-amino-5-[3-fluoro-4-({[2-fluoro-5-(trifluoromethyl)phenyl]carbamoyl}amino)phenyl]pyrrolo[2,1-f][1,2,4]triazin-7-yl}-N-methylpiperidine-1-carboxamide] | 10 to 100 nM
CCc1cccc(NC(=O)Nc2ccc(-c3cc(CN4CCS(=O)(=O)CC4)n4ncnc(N)c34)cc2F)c1 [Example 75, N-(4-{4-amino-7-[(1,1-dioxidothiomorpholin-4-yl)methyl]pyrrolo[2,1-f][1,2,4]triazin-5-yl}-2-fluorophenyl)-N′-(3-ethylphenyl)urea] | < 10 nM
Nc1ncnn2c(CCCN3CCCOCC3)cc(-c3ccc(NC(=O)Nc4cc(C(F)(F)F)ccc4F)c(F)c3)c12 [Example 193, N-(4-{4-amino-7-[3-(1,4-oxazepan-4-yl)propyl]pyrrolo[2,1-f][1,2,4]triazin-5-yl}-2-fluorophenyl)-N′-[2-fluoro-5-(trifluoromethyl)phenyl]urea] | < 10 nM
